Source: patent US20060069132A1, “Azolecarboxamide herbicides” (priority 2004, published 2006)

Tests used:
cocklebur = assay: Test B pre-/postemergence herbicide test; assay type: in vivo, Xanthium strumarium
Summary of the method: (§1)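 Test chemicals in a non-phytotoxic solvent mixture with surfactant were applied preemergence to seeded species and postemergence to plants 2-18 cm tall (1- to 4-leaf stage); rice and barnyardgrass were also tested in a flooded paddy at the 2-leaf stage. Visual rating versus controls after 13-15 days in greenhouse, scale 0 (no effect) to 100 (complete control).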

barnyardgrass [1] = assay: Test B flooded paddy test; assay type: in vivo, Echinochloa crus-galli; settings: 1000 g ai/ha, visual rating, scale 0 to 100 (0 no effect, 100 complete control), 13 to 15 days
Summary of the method: (§2)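 Paddy species grown to the 2-leaf stage under flooding; blackgrass sprayed postemergence at 2–18 cm (1- to 4-leaf stage). Plants kept in a greenhouse for 13 to 15 days, then visually rated against controls on 0 (no effect) to 100 (complete control).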

large crabgrass [2] = assay: Test B pre-/postemergence herbicide test; assay type: in vivo, Digitaria sanguinalis
Summary of the method: (§3)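 Pre: seeds sown, then sprayed. Post: 1–4-leaf plants (2–18 cm) sprayed at the same time. Paddy: flooded, treated at 2-leaf stage. Formulation: non-phytotoxic solvent with surfactant. Greenhouse 13–15 days; visual 0–100 score relative to controls.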

velvetleaf [3] = assay: Test A pre-/postemergence herbicide test; assay type: in vivo, Abutilon theophrasti
Summary of the method: (§4)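 Pre: seeded sandy loam, directed soil spray, compound in non-phytotoxic solvent + surfactant. Post: 1–2-leaf plants (2–10 cm), sprayed to runoff. Greenhouse ~10 d; visual injury vs untreated, 0–100 scale.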

rice [4] = assay: Test B flooded paddy test; assay type: in vivo, Oryza sativa; settings: 1000 g ai/ha, visual rating, scale 0 to 100 (0 no effect, 100 complete control), 13 to 15 days
Summary of the method: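 Plants grow to 1- to 4-leaf stage (2–18 cm) for postemergence spraying, or to 2-leaf stage for the paddy test. Formulated compound is applied. Greenhouse holding lasts 13–15 days. Response is scored visually relative to controls, 0 no effect to 100 complete control; a dash means no result.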

Surinam grass = assay: Test B pre-/postemergence herbicide test; assay type: in vivo, Urochloa decumbens
Summary of the method: as §3

giant foxtail [5] = assay: Test A pre-/postemergence herbicide test; assay type: in vivo, Setaria faberi
Summary of the method: as §4

redroot pigweed = assay: Test A pre-/postemergence herbicide test; assay type: in vivo, Amaranthus retroflexus
Summary of the method: as §4

velvetleaf [6] = assay: Test B pre-/postemergence herbicide test; assay type: in vivo, Abutilon theophrasti
Summary of the method: as §3

large crabgrass [7] = assay: Test A pre-/postemergence herbicide test; assay type: in vivo, Digitaria sanguinalis
Summary of the method: as §4

lambsquarters = assay: Test B pre-/postemergence herbicide test; assay type: in vivo, Chenopodium album
Summary of the method: as §3

giant foxtail [8] = assay: Test B pre-/postemergence herbicide test; assay type: in vivo, Setaria faberi
Summary of the method: as §3

[9] = system: small flower umbrella sedge; assay: Test B flooded paddy test; assay type: in vivo, Cyperus difformis; settings: 1000 g ai/ha, visual rating, scale 0 to 100 (0 no effect, 100 complete control), 13 to 15 days
Summary of the method: as §2

rice [10] = assay: Test B pre-/postemergence herbicide test; assay type: in vivo, Oryza sativa; settings: preemergence
Summary of the method: as §3

ducksalad = assay: Test B flooded paddy test; assay type: in vivo, Heteranthera limosa; settings: 1000 g ai/ha, visual rating, scale 0 to 100 (0 no effect, 100 complete control), 13 to 15 days
Summary of the method: as §2

blackgrass = assay: Test B postemergence herbicide test; assay type: in vivo, Alopecurus myosuroides; settings: scale 0 (no effect) to 100 (complete control)
Summary of the method: as §2

wild oat = assay: Test B postemergence herbicide test; assay type: in vivo, Avena fatua; settings: scale 0 (no effect) to 100 (complete control)
Summary of the method: (§5)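 Read-out: visual comparison with controls, scored 0 to 100, where 100 means complete control and 0 no effect. Formulated chemicals were applied postemergence to plants 2–18 cm tall (1- to 4-leaf), or to flooded-paddy plants at the 2-leaf stage, then held 13 to 15 days under glass.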

morningglory [11] = assay: Test A pre-/postemergence herbicide test; assay type: in vivo, Ipomoea spp.
Summary of the method: as §4

barnyardgrass [12] = assay: Test A pre-/postemergence herbicide test; assay type: in vivo, Echinochloa crus-galli
Summary of the method: as §4

corn = assay: Test B pre-/postemergence herbicide test; assay type: in vivo, Zea mays
Summary of the method: as §3

wheat = assay: Test B postemergence herbicide test; assay type: in vivo, Triticum aestivum; set-up: key to Wheat plant response rating: 0 = no effect, 100 = complete control; settings: scale 0 (no effect) to 100 (complete control)
Summary of the method: as §5

pigweed = assay: Test B pre-/postemergence herbicide test; assay type: in vivo, Amaranthus retroflexus
Summary of the method: as §3

barnyardgrass [13] = assay: Test B pre-/postemergence herbicide test; assay type: in vivo, Echinochloa crus-galli
Summary of the method: as §1

morningglory [14] = assay: Test B pre-/postemergence herbicide test; assay type: in vivo, Ipomoea coccinea
Summary of the method: as §1

[15] = 500 g ai/ha, visual rating 0-100, 0 no effect, 100 complete control, preemergence
[16] = Postemergence, 500 g ai/ha, visual rating after 13 to 15 days, scale 0 (no effect) to 100 (complete control)
[17] = postemergence, 125 g ai/ha, visual rating, scale 0 (no effect) to 100 (complete control)
[18] = preemergence, 125 g ai/ha, 0 to 100 scale, 0 is no effect, 100 is complete control
[19] = Postemergence, 500 g ai/ha, 0 to 100 scale, 0 no effect, 100 complete control
[20] = Postemergence, 2000 g ai/ha, 0 to 100 scale, 0 no effect, 100 complete control
[21] = Preemergence, 500 g ai/ha, visual rating, 0 to 100 scale (0 no effect, 100 complete control)
[22] = Preemergence, 2000 g ai/ha, 0 to 100 scale, 0 no effect, 100 complete control
[23] = Postemergence, 500 g ai/ha, visual rating after 13 to 15 days
[24] = postemergence, 125 g ai/ha, visual rating

Structure (SMILES): CCn1nc(C(C)(C)C)cc1C(=O)Nc1cccc(C(=O)OCC2CC2)c1C [Compound 93]
- Plant response rating, Cocklebur (cocklebur; [15]): 0
- Plant response rating, Cocklebur (cocklebur; [16]): 50
- Cocklebur plant response rating (cocklebur; [17]): 50
- Plant response rating, Cocklebur (cocklebur; [18]): 0
- Barnyardgrass plant response rating (barnyardgrass [1]): 0
- Plant response rating, Crabgrass, Large (large crabgrass [2]; [15]): 20
- Plant response rating, Crabgrass, Large (large crabgrass [2]; [16]): 10
- Crabgrass, Large plant response rating (large crabgrass [2]; [17]): 10
- Plant response rating, Crabgrass, Large (large crabgrass [2]; [18]): 10
- Velvetleaf plant response rating (velvetleaf [3]; [19]): 10
- Plant response rating, Velvetleaf (velvetleaf [3]; [20]): 15
- Velvetleaf plant response rating (velvetleaf [3]; [21]): 10
- Velvetleaf plant response rating (velvetleaf [3]; Preemergence, 2000 g ai/ha, visual rating, 0 to 100 scale (0 no effect, 100 complete control)): 25
- Rice plant response rating (rice [4]): 20
- Plant response rating, Surinam Grass (Surinam grass; [15]): 0
- Plant response rating, Surinam Grass (Surinam grass; [16]): 10
- Surinam Grass plant response rating (Surinam grass; [17]): 10
- Plant response rating, Surinam Grass (Surinam grass; [18]): 0
- Foxtail, Giant plant response rating (giant foxtail [5]; [19]): 10
- Plant response rating, Foxtail, Giant (giant foxtail [5]; [20]): 10
- Foxtail, Giant plant response rating (giant foxtail [5]; [21]): 35
- Foxtail, Giant plant response rating (giant foxtail [5]; [22]): 60
- Pigweed plant response rating (redroot pigweed; [19]): 20
- Plant response rating, Pigweed (redroot pigweed; [20]): 30
- Pigweed plant response rating (redroot pigweed; [21]): 40
- Pigweed plant response rating (redroot pigweed; [22]): 70
- Plant response rating, Velvetleaf (velvetleaf [6]; [15]): 10
- Plant response rating, Velvetleaf (velvetleaf [6]; [16]): 10
- Velvetleaf plant response rating (velvetleaf [6]; [17]): 10
- Plant response rating, Velvetleaf (velvetleaf [6]; [18]): 0
- Crabgrass, Large plant response rating (large crabgrass [7]; [19]): 10
- Plant response rating, Crabgrass, Large (large crabgrass [7]; [20]): 15
- Crabgrass, Large plant response rating (large crabgrass [7]; [21]): 35
- Crabgrass, Large plant response rating (large crabgrass [7]; [22]): 70
- Plant response rating, Lambsquarters (lambsquarters; [15]): 70
- Plant response rating, Lambsquarters (lambsquarters; [16]): 90
- Lambsquarters plant response rating (lambsquarters; [17]): 60
- Plant response rating, Lambsquarters (lambsquarters; [18]): 0
- Plant response rating, Foxtail, Giant (giant foxtail [8]; [15]): 30
- Plant response rating, Foxtail, Giant (giant foxtail [8]; [16]): 10
- Foxtail, Giant plant response rating (giant foxtail [8]; [17]): 10
- Plant response rating, Foxtail, Giant (giant foxtail [8]; [18]): 10
- Sedge, Umbrella plant response rating [9]: 70
- Plant response rating, Rice (rice [10]; 500 g ai/ha, visual rating 0-100, 0 no effect, 100 complete control): 0
- Plant response rating, Rice (rice [10]; 125 g ai/ha, 0 to 100 scale, 0 is no effect, 100 is complete control): 0
- Ducksalad plant response rating (ducksalad): 10
- Plant response rating, Blackgrass (blackgrass; [23]): 10
- Blackgrass plant response rating (blackgrass; [24]): 10
- Plant response rating, Oat, Wild (wild oat; [23]): 10
- Oat, Wild plant response rating (wild oat; [24]): 10
- Morningglory plant response rating (morningglory [11]; [19]): 5
- Plant response rating, Morningglory (morningglory [11]; [20]): 10
- Morningglory plant response rating (morningglory [11]; [21]): 5
- Morningglory plant response rating (morningglory [11]; [22]): 20
- Barnyardgrass plant response rating (barnyardgrass [12]; [19]): 20
- Plant response rating, Barnyardgrass (barnyardgrass [12]; [20]): 25
- Barnyardgrass plant response rating (barnyardgrass [12]; [21]): 25
- Barnyardgrass plant response rating (barnyardgrass [12]; [22]): 40
- Plant response rating, Corn (corn; [15]): 10
- Plant response rating, Corn (corn; [16]): 20
- Corn plant response rating (corn; [17]): 10
- Plant response rating, Corn (corn; [18]): 10
- Plant response rating, Wheat (wheat; [23]): 10
- Wheat plant response rating (wheat; [24]): 10
- Plant response rating, Pigweed (pigweed; [15]): 70
- Plant response rating, Pigweed (pigweed; [16]): 30
- Pigweed plant response rating (pigweed; [17]): 10
- Plant response rating, Pigweed (pigweed; [18]): 0
- Plant response rating, Barnyardgrass (barnyardgrass [13]; [15]): 20
- Plant response rating, Barnyardgrass (barnyardgrass [13]; [16]): 10
- Barnyardgrass plant response rating (barnyardgrass [13]; [17]): 10
- Plant response rating, Barnyardgrass (barnyardgrass [13]; [18]): 0
- Plant response rating, Morningglory (morningglory [14]; [15]): 10
- Plant response rating, Morningglory (morningglory [14]; [16]): 40
- Morningglory plant response rating (morningglory [14]; [17]): 10
- Plant response rating, Morningglory (morningglory [14]; [18]): 0
